18 molecules from ChEMBL document CHEMBL4406815, “Natural product derived promising anti-MRSA drug leads: A review” (Bioorg Med Chem, 2019) can be followed below.

pIC50: −log10 of the molar value. In brackets after ≈: the same amount, converted by molar mass.

Data set [1] deals with Staphylococcus aureus. Kind of data set: Antibacterial activity against methicillin-resistant Staphylococcus aureus. The data set is classed as functional.
Data set [2] relates to Staphylococcus aureus. Kind of data set: Antibacterial activity against methicillin-resistant Staphylococcus aureus ATCC 43300 after 18 hrs. It counts as functional, organism-based. The settings on record: ATCC 43300, 18 h.
In data set [3] the test system is Staphylococcus aureus. The experiment in a line: Antibacterial activity against methicillin-resistant Staphylococcus aureus ATCC 43300. The data set is classed as functional.
Data set [4] relates to Staphylococcus aureus. The experiment in a line: Antibacterial activity against methicillin-resistant Staphylococcus aureus ATCC 33591. It counts as functional.
The subject of data set [5] is Staphylococcus aureus. The experiment in a line: Bactericidal activity against methicillin-resistant Staphylococcus aureus. The data set is classed as functional.
Data set [6] can be described thus: Inhibition of methicillin-resistant Staphylococcus aureus pyruvate kinase.
The test system of data set [7] is Staphylococcus aureus. The experiment in a line: Antibacterial activity against methicillin resistant Staphylococcus aureus BAA 1762 after 24 to 72 hrs by two-fold serial dilution method. It counts as functional.
Data set [8] relates to Staphylococcus aureus. The experiment in a line: Antibacterial activity against methicillin-sensitive Staphylococcus aureus ATCC 25923 after 24 to 72 hrs by two-fold serial dilution method. It counts as functional.
Data set [9] concerns Staphylococcus aureus. The experiment in a line: Antibacterial activity against methicillin-resistant Staphylococcus aureus TISTR 1466 by two-fold serial dilution method. It counts as functional.
Data set [10] relates to Staphylococcus aureus. Kind of data set: Antibacterial activity against methicillin-resistant Staphylococcus aureus SK1 by two-fold serial dilution method. It counts as functional.
Data set [11] has as its system Erythrocyte. The experiment in a line: Hemolytic activity against human erythrocytes. It counts as ADME, cell-based.
Data set [12] can be described thus: Cytotoxicity against African green monkey Vero cells assessed as reduction in cell viability by MTT assay. As to conditions: chlorocebus sabaeus, read-out: MIC. It counts as cell-based.
The test system of data set [13] is Staphylococcus aureus. The experiment in a line: Antimicrobial activity against Staphylococcus aureus ATCC 6538 after 24 hrs by colony counting method. It counts as functional. As to conditions: ATCC 6538, 24 h.
Data set [14] relates to Staphylococcus aureus. The experiment in a line: Antibacterial activity against methicillin-resistant Staphylococcus aureus CGMCC 1.12409. The data set is classed as functional.
The test system of data set [15] is HT-29. Kind of data set: Cytotoxicity against human HT-29 cells assessed as reduction in cell viability after 24 hrs by MTS assay. The data set is classed as functional, cell-based. As to conditions: HT-29, 24 h.

`COc1cc(OC)c(C2COc3c(cc(/C=C/C(=O)c4ccco4)c4c3C=CC(C)(C)O4)C2)cc1/C=C/C(=O)c1ccco1` (stereo not given) registered a minimal inhibitory concentration (MIC) in [1] of 12.5 mg/L.
With `COc1c(-c2ccc(O)c(O)c2)oc2cc(O)cc(O)c2c1=O` [3-O-METHYLQUERCETIN], the pIC50 in [2] was 5.19.
As to `CCCCCCC(C)/C=C(\C)C(=O)O[C@@]1(C)C(=O)C2=COC(c3c(C)cccc3O)=CC2=C(Cl)C1=O` (stereo not given in full), the MIC in [3] and in data set [4] was 3.13 to 6.25 mg/L (≈ 6.1 to 12.2 µM) in each case.
In [1], `CN[C@H](CC(C)C)C(=O)N[C@H]1C(=O)N[C@@H](CC(N)=O)C(=O)N[C@H]2C(=O)N[C@H]3C(=O)N[C@H](C(=O)N[C@H](C(=O)O)c4cc(O)cc(O)c4-c4cc3ccc4O)[C@H](O)c3ccc(c(Cl)c3)Oc3cc2cc(c3O[C@@H]2O[C@H](CO)[C@@H](O)[C@H](O)[C@H]2O[C@H]2C[C@](C)(N)[C@H](O)[C@H](C)O2)Oc2ccc(cc2Cl)[C@H]1O` [VANCOMYCIN] came in with an MIC of 1.25 mg/L.
On to `COc1ccc2cc1Oc1ccc(cc1)C[C@H]1c3cc(c(OC)cc3CCN1C)Oc1c(OC)c(OC)cc3c1[C@H](C2)N(C)CC3` [FANCHININ], for which the MIC was in the range of 256 to 1020 mg/L (≈ 411 to 1640 µM) in [5] and 6 to 128 mg/L in [1].
Take `CCCCCCC(C)/C=C(\C)C(=O)O[C@@]1(C)C(=O)C2=COC(C3=C(C)CC(O)CC3=O)=CC2=C(Cl)C1=O` (stereo not given in full): the minimum inhibitory concentration (MIC) in data set [3] and in data set [4] was 3.13 to 6.25 mg/L (≈ 5.89 to 11.8 µM) throughout.
As for `CCCCOc1c(OC)cc(/C=C2\SC(=O)NC2=O)c2c1CN1CCc3cc4c(cc3C1C2)OCO4` (stereo not given), the MIC in data set [1] turned out to be 8 µM.
The molecule `O=C1NC[C@@H](c2c[nH]c3cc(Br)ccc23)N[C@H]1c1c[nH]c2cc(Br)ccc12` (relative stereo) [CIS-3,4-DIHYDROHAMACANTHIN B] had a pIC50 in [6] of 7.22 to 7.80. Moreover, in data set [1], it took 12.5 mg/L to inhibit growth (MIC).
For `COc1ccc2cc1Oc1ccc(cc1)C[C@H]1c3cc(c(OC)cc3CCN1C)Oc1c(O)c(OC)cc3c1[C@H](C2)N(C)CC3` [FANGCHINOLINE], the minimum inhibitory concentration (MIC) in [5] fell in the range of 256 to 1020 mg/L (≈ 421 to 1680 µM); in [1] it was 6 to 128 mg/L.
As to `COC(=O)/C=C/C(=O)c1ccc(Cl)cc1`, the minimal inhibitory concentration (MIC) in data set [7] and in [8] was 0.35 to 0.75 mg/L (≈ 1.56 to 3.34 µM) throughout.
In the case of `C=C(C)C1Cc2c(cc(OC)c3[nH]c4ccccc4c23)C(=O)O1` (stereo not given) [CLAUSAMINE B], the minimal inhibitory concentration (MIC) was determined as 8 mg/L (≈ 26 µM) in data set [9] and 0.25 mg/L (≈ 0.813 µM) in data set [10].
For the molecule `COc1c(OCCCCN)cc2oc3cc(OCCCCN)c(CC=C(C)C)c(O)c3c(=O)c2c1CC=C(C)C`, in data set [11], the MHC is 80.2 µg/mL. The same molecule came in with an MIC in [1] of 1560 to 3120 µM.
For the molecule `CCCC(=O)C1=C(O)C(C)(C)C(O)=C(Cc2c(O)c(C)c(OC)c(C(=O)CCC)c2O)C1=O`, in data set [12], the MCC is 48.1 µg/mL. The MIC in data set [13] was 15 to 62 mg/L (≈ 32.6 to 135 µM).
The molecule `C=C(C)/C=C/c1c(C(=O)OC)cc(O)c2[nH]c3ccccc3c12` showed an MIC in data set [9] of 4 mg/L (≈ 13 µM).
Regarding `CCCCCCC(C)/C=C(\C)C(=O)O[C@@]1(C)C(=O)C=C2C=C(c3c(C)cccc3O)OC=C2C1=O` (stereo not given in full), the minimum inhibitory concentration (MIC) in data set [3] and in data set [4] was 3.13 to 6.25 mg/L (≈ 6.54 to 13.1 µM) throughout.
With `CC1=C[C@H]2c3c(O)c(O)c4oc5cc(O)cc(O)c5c(=O)c4c3[C@H](c3cc(O)c(O)c4oc5cc(O)cc(O)c5c(=O)c34)[C@H]2C(C)(C)C1`, the MIC in [14] and in data set [3] was 3.9 mg/L (≈ 5.98 µM) in each case.
As to `COc1ccc2c(c1OC)C(O)N(C)c1c-2ccc2cc3c(cc12)OCO3` (stereo not given), the MBC in data set [5] lay within 1.95 to 62.5 mg/L (≈ 5.34 to 171 µM). In [1], this molecule showed an MIC of 0.49 to 15.6 mg/L.
Turning to `O=c1cc(-c2ccc(O)c(O)c2)oc2cc(O)cc(O)c12` [LUTEOLIN], in [15], the negative logarithm of the IC50 (pIC50) was 4.35.
